Measured values reported in PMC7143545, “Specific NDM-1 Inhibitor of Isoliquiritin Enhances the Activity of Meropenem against NDM-1-positive Enterobacteriaceae in vitro” (International Journal of Environmental Research and Public …, 2020).

Molecular target: T1, New Delhi metallo-β-lactamase-1 (NDM-1) (Escherichia coli, UniProt E5KIY2)
T1 construct: gene blaNDM-1; His-tagged protein (pET28a), ndm-1 from E. coli ZC-YN3
Test: nitrocefin hydrolysis inhibition assay with purified enzyme
Assay type: biochemical

T1 sequence (E5KIY2 29-270 limits assumed): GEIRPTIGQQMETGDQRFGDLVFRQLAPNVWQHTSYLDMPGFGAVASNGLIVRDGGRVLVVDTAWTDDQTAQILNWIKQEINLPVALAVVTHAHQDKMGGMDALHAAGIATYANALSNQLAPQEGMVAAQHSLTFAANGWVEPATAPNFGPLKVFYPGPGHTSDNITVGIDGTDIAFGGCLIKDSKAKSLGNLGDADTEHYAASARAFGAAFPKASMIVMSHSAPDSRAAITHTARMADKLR

Compound `O=C(/C=C/c1ccc(O[C@@H]2O[C@H](CO)[C@@H](O)[C@H](O)[C@H]2O)cc1)c1ccc(O)cc1O` [isoliquiritin] has an IC50 of 92.3 µM.
